Reference: patent US20250109119A1, “AMPK AGONISTS AND METHODS OF USE THEREOF” (Evvia Therapeutics, Inc., priority 2023, published 2025)

Legend:
AMPK = assay: EC50 data of compounds of the disclosure (Table A; AMPK agonists); format: biochemical; conditions: cells list compound numbers
[1] = Blood Brain Barrier (BBB) data, brain/plasma ratio (Table B); format: in vivo; conditions: brain and plasma; calculated at a 3 hr time point; Table B column heads <0.1, 0.1-1, >1; cells list compound numbers
Procedure: Blood Brain Barrier (BBB) data was evaluated for compounds of the disclosure and the values are shown in Table B. Brain/plasma ratio was calculated at a 3 hr time point).

SMILES: CCONC(=O)c1c[nH]c2cc(Cl)c(-c3ccc(C4(O)CCC4)nc3)cc12 [compound 1099]
- EC50 (AMPK; Table A '>10 μM'): > 10 µM

SMILES: CONC(=O)c1c[nH]c2cc(Cl)c(-c3ccc(N(C)CC4CCC4)nc3OC)cc12 [compound 1054]
- EC50 (AMPK; Table A '>10 μM'): > 10 µM

SMILES: CONS(=O)(=O)c1c[nH]c2cc(Cl)c(-c3ccc(N(C)C)nc3OC)cc12 [compound 1028, 6-chloro-5-(6-(dimethylamino)-2-methoxypyridin-3-yl)-N-methoxy-1H-indole-3-sulfonamide]
- EC50 (AMPK; Table A '>10 μM'): > 10 µM

SMILES: CONC(=O)c1c[nH]c2cc(F)c(-c3ccc(C4CCCCO4)cc3)c(F)c12 (stereo not shown) [compound 1007, 4,6-difluoro-N-methoxy-5-(4-(tetrahydro-2H-pyran-2-yl)phenyl)-1H-indole-3-carboxamide]
- EC50 (AMPK; Table A column head '<100 nM'): < 0.1 µM

SMILES: CONC(=O)c1c[nH]c2cc(Cl)c(-c3ccc(N(C)CCCN(C)C)nc3OC)cc12 [compound 1064]
- EC50 (AMPK; Table A '>10 μM'): > 10 µM

SMILES: CCONC(=O)c1c[nH]c2cc(Cl)c(-c3ccc(C#N)cc3OC)cc12 [compound 1097]
- EC50 (AMPK; Table A '>10 μM'): > 10 µM

SMILES: CONC(=O)c1c[nH]c2cc(Cl)c(-c3ccc(N(C)C)nc3O)cc12 [compound 1041]
- EC50 (AMPK; Table A '>10 μM'): > 10 µM

SMILES: CONS(=O)(=O)c1c[nH]c2cc(Cl)c(-c3ccc(C4CCCCO4)cc3)cc12 (stereo not shown) [compound 1109, 6-chloro-N-methoxy-5-(4-(tetrahydro-2H-pyran-2-yl)phenyl)-1H-indole-3-sulfonamide]
- EC50 (AMPK; Table A '>10 μM'): > 10 µM

SMILES: COCCONC(=O)c1c[nH]c2cc(Cl)c(-c3ccc(N(C)C)nc3OC)cc12 [compound 1011, 6-chloro-5-(6-(dimethylamino)-2-methoxypyridin-3-yl)-N-(2-methoxyethoxy)-1H-indole-3-carboxamide]
- Kp at 3 h [1]: 0.1 to 1

SMILES: CCONC(=O)c1c[nH]c2cc(Cl)c(-c3ccc(C4(CO)CC4)nc3)cc12 [compound 1101]
- EC50 (AMPK; Table A '>10 μM'): > 10 µM

SMILES: COc1nc(N(C)C)ccc1-c1cc2c(C(=O)NO)c[nH]c2cc1Cl [compound 1001, 6-chloro-5-(6-(dimethylamino)-2-methoxypyridin-3-yl)-N-hydroxy-1H-indole-3-carboxamide]
- Kp at 3 h [1]: < 0.1

SMILES: CCONC(=O)c1c[nH]c2cc(Cl)c(-c3ccc(N(CC)CC)nc3OC)cc12 [compound 1075]
- EC50 (AMPK; Table A '>10 μM'): > 10 µM

SMILES: COc1nc(N(C)C)ccc1-c1cc2c(C(=O)NOCC3CC3)c[nH]c2cc1Cl [compound 1015, 6-chloro-N-(cyclopropylmethoxy)-5-(6-(dimethylamino)-2-methoxypyridin-3-yl)-1H-indole-3-carboxamide]
- Kp at 3 h [1]: 0.1 to 1

SMILES: COCCONC(=O)c1c[nH]c2cc(Cl)c(-c3ccc(C4(O)CCC4)cc3)cc12 [compound 1045]
- Kp at 3 h [1]: < 0.1

SMILES: CONC(=O)c1c[nH]c2cc(Cl)c(-c3ccc(N(C)C)nc3C(F)(F)F)cc12 [compound 1021, 6-chloro-5-(6-(dimethylamino)-2-(trifluoromethyl)pyridin-3-yl)-N-methoxy-1H-indole-3-carboxamide]
- EC50 (AMPK; Table A '>10 μM'): > 10 µM

SMILES: COc1nc(N(C)C)ccc1-c1cc2c(C(=O)NOCCN(C)C)c[nH]c2cc1Cl [compound 1060]
- EC50 (AMPK; Table A '>10 μM'): > 10 µM

SMILES: COc1nc(N(C)C)ccc1-c1cc2c(C(=O)NOc3ccccc3)c[nH]c2cc1Cl [compound 1012, 6-chloro-5-(6-(dimethylamino)-2-methoxypyridin-3-yl)-N-phenoxy-1H-indole-3-carboxamide]
- EC50 (AMPK; Table A '>10 μM'): > 10 µM

SMILES: OCC1(c2ccc(-c3cc4c(-c5nnn[nH]5)c[nH]c4cc3Cl)s2)CC1 [compound 1084]
- Kp at 3 h [1]: < 0.1

SMILES: CONC(=O)c1c[nH]c2cc(Cl)c(-c3ccc(N(C)C)nc3OC)cc12 [compound 1003, 6-chloro-5-(6-(dimethylamino)-2-methoxypyridin-3-yl)-N-methoxy-1H-indole-3-carboxamide]
- Kp at 3 h [1]: > 1
- EC50 (AMPK; Table A column head '<100 nM'): < 0.1 µM

SMILES: COCCN(C)c1ccc(-c2cc3c(C(=O)NOC)c[nH]c3cc2Cl)c(OC)n1 [compound 1051]
- EC50 (AMPK; Table A '>10 μM'): > 10 µM

SMILES: CONC(=O)c1c[nH]c2cc(Cl)c(-c3ccc(N4CC5(CCC5)C4)nc3OC)cc12 [compound 1050]
- EC50 (AMPK; Table A '>10 μM'): > 10 µM

SMILES: CONC(=O)c1c[nH]c2cc(Cl)c(-c3ccc(N4CCC(C)CC4)nc3OC)cc12 [compound 1049]
- EC50 (AMPK; Table A '>10 μM'): > 10 µM

SMILES: CCONC(=O)C(=O)c1c[nH]c2cc(Cl)c(-c3ccc(N(C)C)nc3OC)cc12 [compound 1081]
- Kp at 3 h [1]: < 0.1

SMILES: CONC(=O)c1c[nH]c2cc(Cl)c(-c3ccc(N(C)CCOC(C)C)nc3OC)cc12 [compound 1052]
- EC50 (AMPK; Table A '>10 μM'): > 10 µM

SMILES: CONS(=O)(=O)c1c[nH]c2cc(Cl)c(-c3ccc(-c4ccccc4)cc3)cc12 [compound 1110, 5-([1,1′-biphenyl]-4-yl)-6-chloro-N-methoxy-1H-indole-3-sulfonamide]
- EC50 (AMPK; Table A '>10 μM'): > 10 µM

SMILES: CCONC(=O)c1c[nH]c2cc(Cl)c(-c3ccc(N(C)C)nc3OC)cc12 [compound 1009, 6-chloro-5-(6-(dimethylamino)-2-methoxypyridin-3-yl)-N-ethoxy-1H-indole-3-carboxamide]
- Kp at 3 h [1]: 0.1 to 1

SMILES: CONC(=O)C(=O)c1c[nH]c2cc(Cl)c(-c3ccc(N(C)C)nc3OC)cc12 [compound 1077, 2-(6-chloro-5-(6-(dimethylamino)-2-methoxypyridin-3-yl)-1H-indol-3-yl)-N-methoxy-2-oxoacetamide]
- Kp at 3 h [1]: < 0.1

SMILES: CCONC(=O)c1c[nH]c2cc(Cl)c(-c3ccc(N(C)C)nc3OC)nc12 [compound 1090]
- EC50 (AMPK; Table A '>10 μM'): > 10 µM

SMILES: CONC(=O)c1c[nH]c2cc(Cl)c(-c3ccc(N4CCC(F)(F)CC4)nc3OC)cc12 [compound 1058]
- EC50 (AMPK; Table A '>10 μM'): > 10 µM

SMILES: CCOc1nc(N(C)C)ccc1-c1cc2c(C(=O)NOC)c[nH]c2cc1Cl [compound 1020, 6-chloro-5-(6-(dimethylamino)-2-ethoxypyridin-3-yl)-N-methoxy-1H-indole-3-carboxamide]
- EC50 (AMPK; Table A '>10 μM'): > 10 µM

SMILES: CCc1cc(N(C)C)ccc1-c1cc2c(C(=O)NOC)c[nH]c2cc1Cl [compound 1100]
- EC50 (AMPK; Table A '>10 μM'): > 10 µM

SMILES: CCN(CC)c1ccc(-c2cc3c(C(=O)NOC)c[nH]c3cc2Cl)c(OC)n1 [compound 1074]
- EC50 (AMPK; Table A '>10 μM'): > 10 µM

SMILES: CS(=O)(=O)NC(=O)c1c[nH]c2cc(Cl)c(-c3ccc(-c4ccccc4)cc3)cc12 [compound 1112]
- Kp at 3 h [1]: < 0.1
